Measured values: patent US8067598B2, “Heterofused piperidines as orexin antagonists” (Hoffman-La Roche Inc., priority 2007, dated 2011)
No end group written: not given here.

How the values were obtained:
[1] = biological target: T1, human orexin-2 (hOX2) receptors (Homo sapiens, UniProt O43614); experiment: Intracellular Ca2+ mobilization assay (FLIPR), CHO(dHFr-) cells expressing hOX2; type: cell-based; settings: antagonism of orexin-A at EC80; Kb=IC50/(1+[A]/EC50); CHO(dHFr-)-OX2R cells
T1 construct: expressed in transfected cells
T1 sequence (O43614 1-444): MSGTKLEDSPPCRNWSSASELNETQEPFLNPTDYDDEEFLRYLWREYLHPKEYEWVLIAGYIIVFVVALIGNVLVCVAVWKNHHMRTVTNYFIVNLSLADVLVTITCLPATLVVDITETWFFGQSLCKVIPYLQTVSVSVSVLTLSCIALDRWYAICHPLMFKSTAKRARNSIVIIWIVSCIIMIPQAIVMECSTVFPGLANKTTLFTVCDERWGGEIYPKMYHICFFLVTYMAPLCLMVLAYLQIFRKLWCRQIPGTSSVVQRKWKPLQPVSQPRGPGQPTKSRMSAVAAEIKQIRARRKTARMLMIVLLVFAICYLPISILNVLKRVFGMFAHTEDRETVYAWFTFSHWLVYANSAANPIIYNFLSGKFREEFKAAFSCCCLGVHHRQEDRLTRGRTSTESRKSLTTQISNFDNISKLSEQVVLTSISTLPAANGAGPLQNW
Protocol: (§1) Intracellular Ca^2+ Mobilization Assay
(§2) The Chinese Hamster Ovary (dHFr-) mutant cell line stably expressing human orexin-1 (hOX1) or human orexin-2 (hOX2) receptors were maintained in Dulbecco's Modified Eagle Medium (1X) with GlutaMax™ 1, 4500 mg/L D-Glucose and Sodium Pyruvate (Catalog No. 31966-021, Invitrogen, Carlsbad, Calif.), 5% dialyzed fetal calf serum (Catalog No. 26400-044), 100 μg/ml penicillin and 100 μg/ml streptomycin. The cells were seeded at 5×10^4 cells/well in the poly-D-lysine treated, 96-well, black/clear-bottomed plates (Catalog No. BD356640, BD Biosciences, Palo Alto, Calif.). 24 h later, the cells were loaded for 1 h at 37° C. with 4 μM Flou-4 acetoxymethyl ester (Catalog No. F-14202, Molecular Probes, Eugene, Oreg.) in FLIPR buffer (1×HBSS, 20 mM HEPES, 2.5 mM Probenecid). Hanks' Balanced Salt Solution (HBSS) (10X) (catalog No. 14065-049) and HEPES (1M) (catalog No. 15630-056) were purchased from Invitrogen, Carlsbad, Calif. Probenecid (250 mM) (catalog No. P8761) was from Sigma, Buchs, Switzerland. The cells were washed five times with FLIPR buffer to remove excess dye and intracellular calcium mobilization, [Ca^2+]i were measured using a Fluorometric Imaging Plate Reader (FLIPR-96, Molecular Devices, Menlo Park, Calif.) as described previously (Malherbe et al., Mol. Pharmacol., 64, 823-832, 2003). Orexin A (catalog No. 1455, Toris Cookson Ltd, Bristol, UK) was used as agonist. Orexin A ([…] stock solution in DMSO) was diluted in FLIPR buffer+0.1% BSA. The EC50 and EC80 values of orexin-A were measured daily from standard agonist concentration-response curves in CHO(dHFr-)-OX1R and -OX2R cell lines. All compounds were dissolved in 100% DMSO. Inhibition curves were determined by addition of 11 concentrations (0.0001-10 μM) of inhibitory compounds and using EC80 value of orexin-A as agonist (a concentration which gave 80% of max agonist response, determined daily). The antagonists were applied 25 min (incubation at 37° C.) before the application of the agonist. Responses were measured as peak increase in fluorescence minus basal, normalized to the maximal stimulatory effect induced by EC80 value of orexin-A or orexin-B. Inhibition curves were fitted according to the Hill equation: y=100/(1+(x/IC50)^nH), where nH=slope factor using Excel-fit 4 software (Microsoft).
(§3) Kb values were calculated according to the following equation Kb=IC50/(1+[A]/EC50) where A is the concentration of agonist added which is very close to agonist EC80 value, and IC50 and EC50 values were derived from the antagonist inhibition and orexin-A or B agonist curves, respectively.

[2] = biological target: T2, human orexin-1 (hOX1) receptors (Homo sapiens, UniProt O43613); experiment: Intracellular Ca2+ mobilization assay (FLIPR), CHO(dHFr-) cells expressing hOX1; type: cell-based; settings: antagonism of orexin-A at EC80; Kb=IC50/(1+[A]/EC50); CHO(dHFr-)-OX1R cells
T2 construct: expressed in transfected cells
T2 sequence (O43613 1-425): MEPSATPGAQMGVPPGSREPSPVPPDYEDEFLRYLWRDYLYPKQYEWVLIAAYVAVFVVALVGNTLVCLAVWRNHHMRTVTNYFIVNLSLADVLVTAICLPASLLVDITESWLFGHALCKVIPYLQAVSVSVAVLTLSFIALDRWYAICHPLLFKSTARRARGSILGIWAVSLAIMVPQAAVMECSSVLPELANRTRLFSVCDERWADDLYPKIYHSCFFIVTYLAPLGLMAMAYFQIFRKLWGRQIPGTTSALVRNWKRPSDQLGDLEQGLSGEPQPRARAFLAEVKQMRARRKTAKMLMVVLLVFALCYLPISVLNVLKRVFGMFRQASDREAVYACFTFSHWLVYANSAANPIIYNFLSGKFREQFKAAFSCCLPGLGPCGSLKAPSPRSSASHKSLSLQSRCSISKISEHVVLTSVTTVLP
Protocol: as §1, §2, §3

[3] = system: rat; settings: icv administration (Piper et al., 2000); cited from earlier work

| Kb [1] | Kb [2] | Compound | reduction of total REM sleep [3] |
| --- | --- | --- | --- |
| 0.0566 µM | 0.408 µM | CNC(=O)C(c1ccccc1)N1CCc2sc(C)cc2C1CCc1ccc(OC)cc1 (single isomer, unassigned) [Example 9, 2-{4-[2-(4-Methoxy-phenyl)-ethyl]-2-methyl-6,7-dihydro-4H-thieno[3,2-c]pyridin-5-yl}-N-methyl-2-phenyl-acetamide] |  |
| 0.0266 µM | 0.0311 µM | CNC(=O)C(c1ccccc1)N1CCc2sc(C)cc2C1CCc1ccc(OC)cc1 (single isomer, unassigned) [Example 7, 2-{4-[2-(4-Methoxy-phenyl)-ethyl]-2-methyl-6,7-dihydro-4H-thieno[3,2-c]pyridin-5-yl}-N-methyl-2-phenyl-acetamide] |  |
| 0.005 µM | 0.0402 µM | CNC(=O)C(c1ccccc1)N1CCc2sc(C)c(C)c2C1CCc1ccc(OC)cc1 (single isomer, unassigned) [Example 13, 2-{4-[2-(4-Methoxy-phenyl)-ethyl]-2,3-dimethyl-6,7-dihydro-4H-thieno[3,2-c]pyridin-5-yl}-N-methyl-2-phenyl-acetamide] |  |
| 0.0601 µM | 0.301 µM | CNC(=O)C(c1ccccc1)N1CCc2ncccc2C1CCc1ccc(F)cc1 (single isomer, unassigned) [Example 28, 2-{5-[2-(4-Fluoro-phenyl)-ethyl]-7,8-dihydro-5H-[1,6]naphthyridin-6-yl}-N-methyl-2-phenyl-acetamide] |  |
| 0.0075 µM | 0.0135 µM | CNC(=O)C(c1ccccc1)N1CCc2sc(C)cc2C1CCc1ccc(OC)cc1 (single isomer, unassigned) [Example 8, 2-{4-[2-(4-Methoxy-phenyl)-ethyl]-2-methyl-6,7-dihydro-4H-thieno[3,2-c]pyridin-5-yl}-N-methyl-2-phenyl-acetamide] |  |
| 0.0169 µM | 0.408 µM | CNC(=O)C(c1ccccc1)N1CCc2sc(C)c(C)c2C1CCc1ccc(OC)cc1 (single isomer, unassigned) [Example 15, 2-{4-[2-(4-Methoxy-phenyl)-ethyl]-2,3-dimethyl-6,7-dihydro-4H-thieno[3,2-c]pyridin-5-yl}-N-methyl-2-phenyl-acetamide] |  |
| 0.0462 µM | 0.0162 µM | CNC(=O)C(c1ccccc1)N1CCc2sc(Cl)cc2C1CCc1ccc(OC)cc1 (single isomer, unassigned) [Example 17, 2-{2-Chloro-4-[2-(4-methoxy-phenyl)-ethyl]-6,7-dihydro-4H-thieno[3,2-c]pyridin-5-yl}-N-methyl-2-phenyl-acetamide] |  |
| 0.0091 µM | 0.0401 µM | CNC(=O)C(c1ccccc1)N1CCc2sc(C)cc2C1CCc1ccc(C(F)(F)F)cc1 (single isomer, unassigned) [Example 6, N-Methyl-2-{2-methyl-4-[2-(4-trifluoromethyl-phenyl)-ethyl]-6,7-dihydro-4H-thieno[3,2-c]pyridin-5-yl}-2-phenyl-acetamide] |  |
| 0.0036 µM | 0.0221 µM | CNC(=O)C(c1ccccc1)N1CCc2sc(C)c(C)c2C1CCc1ccc(OC)cc1 (single isomer, unassigned) [Example 14, 2-{4-[2-(4-Methoxy-phenyl)-ethyl]-2,3-dimethyl-6,7-dihydro-4H-thieno[3,2-c]pyridin-5-yl}-N-methyl-2-phenyl-acetamide] |  |
| 0.038 µM | 0.105 µM | CNC(=O)C(c1ccccc1)N1CCc2ncccc2C1CCc1ccc(OC)cc1 (single isomer, unassigned) [Example 22, 2-{5-[2-(4-Methoxy-phenyl)-ethyl]-7,8-dihydro-5H-[1,6]naphthyridin-6-yl}-N-methyl-2-phenyl-acetamide] |  |

More lines, now with the values behind:

| Compound | Kb [1] | Kb [2] | reduction of total REM sleep [3] |
| --- | --- | --- | --- |
| CNC(=O)C(c1ccccc1)N1CCc2ncccc2C1CCc1cccc(OC)c1 (single isomer, unassigned) [Example 23, 2-{5-[2-(3-Methoxy-phenyl)-ethyl]-7,8-dihydro-5H-[1,6]naphthyridin-6-yl}-N-methyl-2-phenyl-acetamide] | 0.0852 µM | 0.223 µM |  |
| CNC(=O)C(c1ccccc1)N1CCc2ncccc2C1CCc1ccc(OC)cc1 (single isomer, unassigned) [Example 11, 2-{5-[2-(4-Methoxy-phenyl)-ethyl]-7,8-dihydro-5H-[1,6]naphthyridin-6-yl}-N-methyl-2-phenyl-acetamide] | 0.0215 µM | 0.164 µM |  |
| OX-A: orexin-A/hypocretin1 hypothalamic neuropeptide, 33 amino acids; agonist of OX1R and OX2R (QPLPDCCRQKTCSCRLYELLHGAGNHAAGILTL; ends and bridges not checked; cysteine pairing not given here; UniProt O43612 34-66, looked up) |  |  | 84% |
| CNC(=O)C(c1ccccc1)N1CCc2sc(Cl)cc2C1CCc1ccc(OC)cc1 (single isomer, unassigned) [Example 18, 2-{2-Chloro-4-[2-(4-methoxy-phenyl)-ethyl]-6,7-dihydro-4H-thieno[3,2-c]pyridin-5-yl}-N-methyl-2-phenyl-acetamide] | 0.032 µM | 0.0095 µM |  |
| CNC(=O)C(c1ccccc1)N1CCc2sc(C)cc2C1CCc1ccc(C(F)(F)F)cc1 (single isomer, unassigned) [Example 4, N-Methyl-2-{2-methyl-4-[2-(4-trifluoromethyl-phenyl)-ethyl]-6,7-dihydro-4H-thieno[3,2-c]pyridin-5-yl}-2-phenyl-acetamide] | 0.0204 µM | 0.047 µM |  |
| CNC(=O)C(c1ccccc1)N1CCc2ccsc2C1CCc1ccc(C(F)(F)F)cc1 (single isomer, unassigned) [Example 16, N-Methyl-2-phenyl-2-{7-[2-(4-trifluoromethyl-phenyl)-ethyl]-4,7-dihydro-5H-thieno[2,3-c]pyridin-6-yl}-acetamide] | 0.0148 µM | 0.0524 µM |  |
| CNC(=O)C(c1ccccc1)N1CCc2ncccc2C1CCc1ccc(C(F)(F)F)cc1 (single isomer, unassigned) [Example 26, N-Methyl-2-phenyl-2-{5-[2-(4-trifluoromethyl-phenyl)-ethyl]-7,8-dihydro-5H -[1,6]naphthyridin-6-yl}-acetamide] | 0.0356 µM | 0.348 µM |  |
| CNC(=O)C(c1ccccc1)N1CCc2ncccc2C1CCc1cccc(OC)c1 (single isomer, unassigned) [Example 25, 2-{5-[2-(3-Methoxy-phenyl)-ethyl]-7,8-dihydro-5H-[1,6]naphthyridin-6-yl}-N-methyl-2-phenyl-acetamide] | 0.0296 µM | 0.108 µM |  |
